The record followed here is patent US12559529B2, “NPY2 receptor agonists” (Boehringer Ingelheim International GmbH, priority 2019, dated 2026).

*1 amine or outer side, *2 acyl side, *3 side chain or, on linkers, in order; H or OH if unused. Where a SMILES comes first, the peptide text is derived from it. Side-chain parts run from the residue outwards. The star is where a group is joined. C18 diacid = O=C(O)CCCCCCCCCCCCCCCCC(=O)*; γGlu = O=C(O)[C@H](CCC(=O)[*:2])N[*:1]; Isovaleryl = CC(C)CC(=O)*; AEEA = NCCOCCOCC(=O)O

The target in this test is T1, Human Neuropeptide Y2 Receptor (Homo sapiens, UniProt P49146).
T1 construct: purchased CHEMICON HTS066M
T1 sequence (P49146 1-381): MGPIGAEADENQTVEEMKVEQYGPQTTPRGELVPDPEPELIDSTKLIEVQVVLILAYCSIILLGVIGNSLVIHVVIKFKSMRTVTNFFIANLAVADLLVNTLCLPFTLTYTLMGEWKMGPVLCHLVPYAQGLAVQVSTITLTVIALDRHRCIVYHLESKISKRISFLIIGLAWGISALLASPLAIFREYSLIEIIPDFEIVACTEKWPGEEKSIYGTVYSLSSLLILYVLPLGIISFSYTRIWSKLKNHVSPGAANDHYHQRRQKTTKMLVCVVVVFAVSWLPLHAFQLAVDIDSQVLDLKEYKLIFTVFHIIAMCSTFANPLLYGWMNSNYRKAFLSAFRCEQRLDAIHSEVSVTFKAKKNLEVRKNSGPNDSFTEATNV
The test is described as follows: Radioligand binding competition assay (RLB). The note with it: Table 3; human 125I-PYY (1-36) 0.02 nM, Y2 receptor membranes; read-out: Ki. In short, it runs like this: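 Competition binding on human Y2 receptor membranes, 0.5 μg protein/well, in 50 mM HEPES, 5 mM MgCl2, 1 mM CaCl2, pH 7.4, 0.2% ovalbumin; peptides diluted from 1 mM DMSO stocks.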
Take `CC(C)CC(=O)N[C@@H](C)C(=O)N1CCC[C@H]1C(=O)N[C@@H](CCC(=O)O)C(=O)N[C@@H](CCCCNC(=O)COCCOCCNC(=O)COCCOCCNC(=O)CC[C@H](NC(=O)CCCCCCCCCCCCCCCCC(=O)O)C(=O)O)C(=O)N[C@@H](C)C(=O)N[C@@H](CCC(=O)O)C(=O)N[C@@H](CCC(=O)O)C(=O)N[C@@H](CCC(=O)O)C(=O)N[C@@H](C)C(=O)N[C@@H](CO)C(=O)N1CCC[C@H]1C(=O)N[C@@H](CCC(=O)O)C(=O)N[C@@H](CCC(=O)O)C(=O)N[C@@H](CC(C)C)C(=O)N[C@@H](CCC(N)=O)C(=O)N[C@@H](CCCNC(=N)N)C(=O)N[C@@H](Cc1ccc(O)cc1)C(=O)N[C@@H](Cc1ccc(O)cc1)C(=O)N[C@H](C(=O)N[C@@H](CO)C(=O)N[C@@H](CC(C)C)C(=O)N[C@@H](CCCNC(=N)N)C(=O)N[C@@H](Cc1c[nH]cn1)C(=O)N[C@@H](Cc1ccc(O)cc1)C(=O)N[C@@H](Cc1ccc(O)cc1)C(=O)N[C@@H](CC(N)=O)C(=O)N[C@@H](Cc1c[nH]c2ccccc12)C(=O)N[C@@H](CC(C)C)C(=O)N[C@H](C(=O)N[C@@H](CCCNC(=N)N)C(=O)N[C@@H](CCC(N)=O)C(=O)N[C@@H](CCCNC(=N)N)C(=O)N[C@@H](Cc1ccc(O)cc1)C(N)=O)[C@@H](C)O)C(C)C` [Compound 51, N{alpha-4}-(3-methylbutanoyl)-N{epsilon-7}-[2-(2-{2-[2-(2-{2-[(4S)-4-carboxy-4-(17-carboxyheptadecanamido)butanamido]ethoxy}ethoxy)acetamido]ethoxy}ethoxy)acetamido]-[4A,7K,8A,9E,11E,18Q,22V,28Y,30W,31L]hPYY (4-36)] (Isovaleryl-APEK([AEEA-AEEA-γGlu-C18 diacid])AEEEASPEELQRYYVSLRHYYNWLTRQRY-NH2): the Ki (as a rule, the equilibrium dissociation constant of an inhibitor or competing ligand from its target) amounted to 39.4 nM.
With `CC(C)CC(=O)N[C@@H](C)C(=O)N1CCC[C@H]1C(=O)N[C@@H](CCC(=O)O)C(=O)N[C@@H](CCCCNC(=O)COCCOCCNC(=O)COCCOCCNC(=O)CC[C@H](NC(=O)CCCCCCCCCCCCCCCCC(=O)O)C(=O)O)C(=O)N[C@@H](C)C(=O)N[C@@H](CCC(=O)O)C(=O)N[C@@H](CCC(=O)O)C(=O)N[C@@H](CC(=O)O)C(=O)N[C@@H](C)C(=O)N[C@@H](CO)C(=O)N[C@@H](CCC(=O)O)C(=O)N[C@@H](CCC(=O)O)C(=O)N[C@@H](CCC(=O)O)C(=O)N[C@@H](CC(C)C)C(=O)N[C@@H](CCC(N)=O)C(=O)N[C@@H](CCCNC(=N)N)C(=O)N[C@@H](Cc1ccc(O)cc1)C(=O)N[C@@H](Cc1ccc(O)cc1)C(=O)N[C@H](C(=O)N[C@@H](CO)C(=O)N[C@@H](CC(C)C)C(=O)N[C@@H](CCCNC(=N)N)C(=O)N[C@@H](Cc1c[nH]cn1)C(=O)N[C@@H](Cc1ccc(O)cc1)C(=O)N[C@@H](Cc1ccc(O)cc1)C(=O)N[C@@H](CC(N)=O)C(=O)N[C@@H](Cc1c[nH]c2ccccc12)C(=O)N[C@@H](CC(C)C)C(=O)N[C@H](C(=O)N[C@@H](CCCNC(=N)N)C(=O)N[C@@H](CCC(N)=O)C(=O)N[C@@H](CCCNC(=N)N)C(=O)N[C@@H](Cc1ccc(O)cc1)C(N)=O)[C@@H](C)O)C(C)C` [Compound 52, N{alpha-4}-(3-methylbutanoyl)-N{epsilon-7}-[2-(2-{2-[2-(2-{2-[(4S)-4-carboxy-4-(17-carboxyheptadecanamido)butanamido]ethoxy}ethoxy)acetamido]ethoxy}ethoxy)acetamido]-[4A,7K,8A,9E,14E,18Q,22V,28Y,30W,31L]hPYY (4-36)], the Ki was found to be 8.53 nM.
As for `CC(C)CC(=O)N[C@@H](C)C(=O)N1CCC[C@H]1C(=O)N[C@@H](CCC(=O)O)C(=O)N[C@@H](CCCCNC(=O)COCCOCCNC(=O)COCCOCCNC(=O)CC[C@H](NC(=O)CCCCCCCCCCCCCCCCC(=O)O)C(=O)O)C(=O)N1CCC[C@H]1C(=O)N[C@@H](CCC(=O)O)C(=O)N[C@@H](CCC(=O)O)C(=O)N[C@@H](CC(=O)O)C(=O)N[C@@H](C)C(=O)N[C@@H](CO)C(=O)N1CCC[C@H]1C(=O)N[C@@H](CCC(=O)O)C(=O)N[C@@H](CCC(=O)O)C(=O)N[C@@H](C)C(=O)N[C@@H](CCC(N)=O)C(=O)N[C@@H](CCCNC(=N)N)C(=O)N[C@@H](Cc1ccc(O)cc1)C(=O)N[C@@H](Cc1ccc(O)cc1)C(=O)N[C@H](C(=O)N[C@@H](CO)C(=O)N[C@@H](CC(C)C)C(=O)N[C@@H](CCCNC(=N)N)C(=O)N[C@@H](Cc1c[nH]cn1)C(=O)N[C@@H](Cc1ccc(O)cc1)C(=O)N[C@@H](Cc1ccc(O)cc1)C(=O)N[C@@H](CC(N)=O)C(=O)N[C@@H](Cc1c[nH]c2ccccc12)C(=O)N[C@@H](CC(C)C)C(=O)N[C@H](C(=O)N[C@@H](CCCNC(=N)N)C(=O)N[C@@H](CCC(N)=O)C(=O)N[C@@H](CCCNC(=N)N)C(=O)N[C@@H](Cc1ccc(O)cc1)C(N)=O)[C@@H](C)O)C(C)C` [Compound 55, N{alpha-4}-(3-methylbutanoyl)-N{epsilon-7}-[2-(2-{2-[2-(2-{2-[(4S)-4-carboxy-4-(17-carboxyheptadecanamido)butanamido]ethoxy}ethoxy)acetamido]ethoxy}ethoxy)acetamido]-[4A,7K,9E,17A,18Q,22V,28Y,30W,31L]hPYY (4-36)], the Ki stood at 3.35 nM.
To `CC(C)CC(=O)N[C@@H](C)C(=O)N1CCC[C@H]1C(=O)N[C@@H](CCC(=O)O)C(=O)N[C@@H](CCCCNC(=O)COCCOCCNC(=O)COCCOCCNC(=O)CC[C@H](NC(=O)CCCCCCCCCCCCCCCCC(=O)O)C(=O)O)C(=O)N1CCC[C@H]1C(=O)N[C@@H](CCC(=O)O)C(=O)N[C@@H](CCC(=O)O)C(=O)N[C@@H](C)C(=O)N[C@@H](C)C(=O)N[C@@H](CO)C(=O)N1CCC[C@H]1C(=O)N[C@@H](CCC(=O)O)C(=O)N[C@@H](CCC(=O)O)C(=O)N[C@@H](CC(C)C)C(=O)N[C@@H](CCC(=O)O)C(=O)N[C@@H](CCC(N)=O)C(=O)N[C@@H](Cc1ccc(O)cc1)C(=O)N[C@@H](Cc1ccc(O)cc1)C(=O)N[C@H](C(=O)N[C@@H](CO)C(=O)N[C@@H](CC(C)C)C(=O)N[C@@H](CCCNC(=N)N)C(=O)N[C@@H](Cc1c[nH]cn1)C(=O)N[C@@H](Cc1ccc(O)cc1)C(=O)N[C@@H](Cc1ccc(O)cc1)C(=O)N[C@@H](CC(N)=O)C(=O)N[C@@H](Cc1c[nH]c2ccccc12)C(=O)N[C@@H](CC(C)C)C(=O)N[C@H](C(=O)N[C@@H](CCCNC(=N)N)C(=O)N[C@@H](CCC(N)=O)C(=O)N[C@@H](CCCNC(=N)N)C(=O)N[C@@H](Cc1ccc(O)cc1)C(N)=O)[C@@H](C)O)C(C)C` [Compound 60, N{alpha-4}-(3-methylbutanoyl)-N{epsilon-7}-[2-(2-{2-[2-(2-{2-[(4S)-4-carboxy-4-(17-carboxyheptadecanamido)butanamido]ethoxy}ethoxy)acetamido]ethoxy}ethoxy)acetamido]-[4A,7K,9E,11A,18E,19Q,22V,28Y,30W,31L]hPYY (4-36)] (Isovaleryl-APEK([AEEA-AEEA-γGlu-C18 diacid])PEEAASPEELEQYYVSLRHYYNWLTRQRY-NH2) belongs 5.95 nM; to `CC[C@H](C)[C@H](NC(=O)[C@H](CCC(=O)O)NC(=O)[C@H](CCC(=O)O)NC(=O)[C@@H]1CCCN1C(=O)[C@H](CO)NC(=O)[C@H](C)NC(=O)[C@H](CC(=O)O)NC(=O)[C@H](CCC(=O)O)NC(=O)[C@@H]1CCCN1C(=O)[C@@H]1CCCN1C(=O)[C@H](CCCCNC(=O)COCCOCCNC(=O)COCCOCCNC(=O)CC[C@H](NC(=O)CCCCCCCCCCCCCCCCC(=O)O)C(=O)O)NC(=O)[C@H](CCC(=O)O)NC(=O)[C@@H]1CCCN1C(=O)[C@H](C)NC(=O)CC(C)C)C(=O)N[C@@H](CCC(N)=O)C(=O)N[C@@H](CCCNC(=N)N)C(=O)N[C@@H](Cc1ccc(O)cc1)C(=O)N[C@@H](Cc1ccc(O)cc1)C(=O)N[C@H](C(=O)N[C@@H](CO)C(=O)N[C@@H](CC(C)C)C(=O)N[C@@H](CCCNC(=N)N)C(=O)N[C@@H](Cc1c[nH]cn1)C(=O)N[C@@H](Cc1ccc(O)cc1)C(=O)N[C@@H](Cc1ccc(O)cc1)C(=O)N[C@@H](CC(N)=O)C(=O)N[C@@H](Cc1c[nH]c2ccccc12)C(=O)N[C@@H](CC(C)C)C(=O)N[C@H](C(=O)N[C@@H](CCCNC(=N)N)C(=O)N[C@@H](CCC(N)=O)C(=O)N[C@@H](CCCNC(=N)N)C(=O)N[C@@H](Cc1ccc(O)cc1)C(N)=O)[C@@H](C)O)C(C)C` [Compound 61, N{alpha-4}-(3-methylbutanoyl)-N{epsilon-7}-[2-(2-{2-[2-(2-{2-[(4S)-4-carboxy-4-(17-carboxyheptadecanamido)butanamido]ethoxy}ethoxy)acetamido]ethoxy}ethoxy)acetamido]-[4A,7K,9P,17I,18Q,22V,28Y,30W,31L]hPYY (4-36)], 0.4 nM.
